From PubChem BioAssay AID212 (DTP/NCI, 2004)
Where “and” joins values, the source holds several entries; their conditions need not be identical. Equal values may be shown once. Inconclusive results are not listed.

Tested on: BDF1 mice, colon carcinoma 38 sc, T/C %
Assay: NCI In Vivo Anticancer Drug Screen. Data for tumor model Colon Carcinoma 38 (subcutaneous) in B6D2F1 (BDF1) mice
Settings: endpoint: median tumor weight (est.), higher = larger tumour
Experimental: The antitumor activity of compounds was measured in mice bearing transplantable tumors. Survival or tumor size were measured and the results are expressed as the measurement made in the treated group (T) divided by the measurement made in the vehicle treated control group (C). The tumor model used in this assay is Colon Carcinoma 38 (subcutaneous) in B6D2F1 (BDF1) mice

[1] = dose: 12.5 mg/kg/injection, schedule: Q07DX002 (ip), vehicle: saline with Tween-80
[2] = dose: 50.0 mg/kg/injection, schedule: Q07DX002 (ip), vehicle: saline with Tween-80
[3] = dose: 100.0 mg/kg/injection, schedule: Q07DX002 (ip), vehicle: Klucel (hydroxypropylcellulose) (HPC)
[4] = dose: 25.0 mg/kg/injection, schedule: Q07DX002 (ip), vehicle: Klucel (hydroxypropylcellulose) (HPC)
[5] = dose: 50.0 mg/kg/injection, schedule: Q07DX002 (ip), vehicle: Klucel (hydroxypropylcellulose) (HPC)
[6] = dose: 12.5 mg/kg/injection, schedule: Q07DX002 (ip), vehicle: saline
[7] = dose: 25.0 mg/kg/injection, schedule: Q07DX002 (ip), vehicle: saline
[8] = dose: 50.0 mg/kg/injection, schedule: Q07DX002 (ip), vehicle: saline

Question: Which results are given for `Nc1nc2c(ncn2C2OC(CO)C(O)C2O)c(=O)[nH]1` (stereo unspecified)?
Answer: T/C (dose: 100.0 mg/kg/injection, schedule: Q07DX002 (ip), vehicle: suspension in saline): 100 % of control; T/C (dose: 200.0 mg/kg/injection, schedule: Q07DX002 (ip), vehicle: suspension in saline): 117 % of control; T/C (dose: 400.0 mg/kg/injection, schedule: Q07DX002 (ip), vehicle: suspension in saline): 94 % of control; T/C (dose: 800.0 mg/kg/injection, schedule: Q07DX002 (ip), vehicle: suspension in saline): 105 % of control; T/C (dose: 1600.0 mg/kg/injection, schedule: Q07DX002 (ip), vehicle: suspension in saline): 90 % of control

Question: What does the source list for `Nc1ncnc2c1ncn2C1OC(CO)CC1O` (stereo unspecified)?
Answer: T/C (dose: 75.0 mg/kg/injection, schedule: Q07DX002 (ip), vehicle: Klucel (hydroxypropylcellulose) (HPC)): 110 % of control; T/C (dose: 150.0 mg/kg/injection, schedule: Q07DX002 (ip), vehicle: Klucel (hydroxypropylcellulose) (HPC)): 88 % of control; T/C (dose: 300.0 mg/kg/injection, schedule: Q07DX002 (ip), vehicle: Klucel (hydroxypropylcellulose) (HPC)): 54 % of control

Question: For `C=C/C(C)=C/[C@H](C)C(=O)C[C@H](O)CC1CC(=O)NC(=O)C1`, which T/C [1] is on record?
Answer: Its T/C is 111 % of control.

Question: What about the T/C (dose: 25.0 mg/kg/injection, schedule: Q07DX002 (ip), vehicle: saline with Tween-80) of the same compound?
Answer: Its T/C is 102 % of control.

Question: And the T/C [2]?
Answer: The T/C was 89 % of control.

Question: What about the T/C (dose: 100.0 mg/kg/injection, schedule: Q07DX002 (ip), vehicle: saline with Tween-80) of the same compound?
Answer: Its T/C is 102 % of control.

Question: For `Cn1cnc([N+](=O)[O-])c1S(=O)(=O)NCN1CCOCC1`, which T/C [3] is on record?
Answer: Its T/C is 102 % of control and 104 % of control.

Question: `COC(=O)C12OCC34C(CC5C(C)C6=CC(=O)OC6=CC5(C)C3C(O)C1O)OC(=O)C(OC(C)=O)C24` (stereo unspecified) was tested. Which T/C (dose: 0.25 mg/kg/injection, schedule: Q07DX002 (ip), vehicle: saline + alcohol) did it give?
Answer: The T/C was 86 % of control.

Question: And the T/C (dose: 0.5 mg/kg/injection, schedule: Q07DX002 (ip), vehicle: saline + alcohol)?
Answer: The T/C was 65 % of control.

Question: What about the T/C (dose: 1.0 mg/kg/injection, schedule: Q07DX002 (ip), vehicle: saline + alcohol) of the same compound?
Answer: The T/C was 96 % of control.

Question: What about the T/C (dose: 2.0 mg/kg/injection, schedule: Q07DX002 (ip), vehicle: saline + alcohol) of the same compound?
Answer: Its T/C is 105 % of control.

Question: What about the T/C (dose: 4.0 mg/kg/injection, schedule: Q07DX002 (ip), vehicle: saline + alcohol) of the same compound?
Answer: Its T/C is 114 % of control.

Question: How did the T/C (dose: 6.25 mg/kg/injection, schedule: Q07DX002 (ip), vehicle: water) turn out when `CN1N=C(N)c2cn(C3OC(COP(=O)(O)O)C(O)C3O)c3ncnc1c23` (stereo unspecified) was run?
Answer: Its T/C is 84 % of control.

Question: What about the T/C (dose: 25.0 mg/kg/injection, schedule: Q07DX002 (ip), vehicle: water) of the same compound?
Answer: Its T/C is 68 % of control and 91 % of control.

Question: And the T/C (dose: 100.0 mg/kg/injection, schedule: Q07DX002 (ip), vehicle: water)?
Answer: The T/C was 73 % of control.

Question: For `Nc1ccccc1N`, which T/C (dose: 12.5 mg/kg/injection, schedule: Q07DX002 (ip), vehicle: Klucel (hydroxypropylcellulose) (HPC)) is on record?
Answer: The T/C was 75 % of control and 91 % of control.

Question: What about the T/C [4] of the same compound?
Answer: Its T/C is 122 % of control and 102 % of control.

Question: What about the T/C [5] of the same compound?
Answer: Its T/C is 91 % of control.

Question: What about the T/C (dose: 400.0 mg/kg/injection, schedule: Q07DX002 (ip), vehicle: Klucel (hydroxypropylcellulose) (HPC)) of the same compound?
Answer: The T/C was 54 % of control.

Question: With `O=C(O)/C=C/C(=O)Nc1ccc(Cl)c(Cl)c1` as the compound, how does the T/C (dose: 12.5 mg/kg/injection, schedule: Q07DX003 (ip), vehicle: Klucel (hydroxypropylcellulose) (HPC)) read?
Answer: Its T/C is 84 % of control.

Question: And the T/C [4]?
Answer: Its T/C is 67 % of control.

Question: What about the T/C [5] of the same compound?
Answer: Its T/C is 77 % of control.

Question: What about the T/C (dose: 50.0 mg/kg/injection, schedule: Q07DX003 (ip), vehicle: Klucel (hydroxypropylcellulose) (HPC)) of the same compound?
Answer: The T/C was 69 % of control.

Question: And the T/C [3]?
Answer: Its T/C is 78 % of control.

Question: What about the T/C (dose: 100.0 mg/kg/injection, schedule: Q07DX003 (ip), vehicle: Klucel (hydroxypropylcellulose) (HPC)) of the same compound?
Answer: Its T/C is 122 % of control.

Question: And the T/C (dose: 200.0 mg/kg/injection, schedule: Q07DX002 (ip), vehicle: Klucel (hydroxypropylcellulose) (HPC))?
Answer: Its T/C is 67 % of control.

Question: For `CC1(C)OCC(CO)(Nc2nc(N3CC3)nc(N3CC3)n2)CO1`, which T/C (dose: 1.25 mg/kg/injection, schedule: Q07DX002 (ip), vehicle: saline) is on record?
Answer: Its T/C is 72 % of control.

Question: What about the T/C (dose: 1.25 mg/kg/injection, schedule: Q07DX003 (ip), vehicle: saline) of the same compound?
Answer: Its T/C is 166 % of control.

Question: And the T/C (dose: 2.5 mg/kg/injection, schedule: Q07DX002 (ip), vehicle: saline)?
Answer: Its T/C is 75 % of control.

Question: And the T/C (dose: 2.5 mg/kg/injection, schedule: Q07DX003 (ip), vehicle: saline)?
Answer: Its T/C is 111 % of control.

Question: What about the T/C (dose: 5.0 mg/kg/injection, schedule: Q07DX002 (ip), vehicle: saline) of the same compound?
Answer: Its T/C is 65 % of control.

Question: And the T/C (dose: 5.0 mg/kg/injection, schedule: Q07DX003 (ip), vehicle: saline)?
Answer: Its T/C is 49 % of control.

Question: And the T/C (dose: 10.0 mg/kg/injection, schedule: Q07DX002 (ip), vehicle: saline)?
Answer: Its T/C is 15 % of control.

Question: Which T/C [6] does the source give for `Nc1nc(=O)n(C2OC(CO)C(O)C2O)cc1F` (stereo unspecified) here?
Answer: Its T/C is 124 % of control.

Question: What about the T/C [7] of the same compound?
Answer: Its T/C is 211 % of control.

Question: What about the T/C [8] of the same compound?
Answer: The T/C was 118 % of control and 235 % of control.

Question: And the T/C (dose: 200.0 mg/kg/injection, schedule: Q07DX002 (ip), vehicle: saline)?
Answer: Its T/C is 60 % of control and 83 % of control.

Question: What does the source list for `CC(=O)OCC1OC(n2ccc(N)nc2=O)C(OC(C)=O)C1OC(C)=O` (stereo unspecified)?
Answer: T/C [7]: 113 % of control and 92 % of control; T/C [8]: 97 % of control and 104 % of control; T/C (dose: 800.0 mg/kg/injection, schedule: Q07DX002 (ip), vehicle: saline): 30 % of control and 36 % of control

Question: What does the source list for `NC1CCCCC1N.O=S(=O)([O-])CCCNC1CCCCC1.O=S(=O)([O-])CCCNC1CCCCC1.[Pt+4]`?
Answer: T/C (dose: 0.78 mg/kg/injection, schedule: Q07DX002 (ip), vehicle: saline): 50 % of control; T/C (dose: 1.56 mg/kg/injection, schedule: Q07DX002 (ip), vehicle: saline): 38 % of control; T/C (dose: 3.12 mg/kg/injection, schedule: Q07DX002 (ip), vehicle: saline): 62 % of control; T/C (dose: 6.25 mg/kg/injection, schedule: Q07DX002 (ip), vehicle: saline): 25 % of control and 47 % of control; T/C [6]: 14 % of control

Question: What does the source list for `COc1cc2cc3c4cc(OC)c(OC)cc4cc[n+]3c(C)c2cc1OC` (tested in a mixture with another compound)?
Answer: T/C (dose: 50.0 mg/kg/injection, schedule: Q07DX003 (ip), vehicle: saline): 164 % of control; T/C (dose: 100.0 mg/kg/injection, schedule: Q07DX003 (ip), vehicle: saline): 77 % of control and 96 % of control; T/C (dose: 400.0 mg/kg/injection, schedule: Q07DX003 (ip), vehicle: saline): 53 % of control

Question: For `Cc1cnc(/C=N\NC(N)=S)c2cccc(N)c12`, which T/C (dose: 6.25 mg/kg/injection, schedule: Q07DX002 (ip), vehicle: saline with Tween-80) is on record?
Answer: The T/C was 110 % of control.

Question: And the T/C (dose: 6.25 mg/kg/injection, schedule: Q07DX003 (ip), vehicle: saline with Tween-80)?
Answer: The T/C was 88 % of control.

Question: What about the T/C [1] of the same compound?
Answer: Its T/C is 69 % of control.

Question: And the T/C (dose: 12.5 mg/kg/injection, schedule: Q07DX003 (ip), vehicle: saline with Tween-80)?
Answer: The T/C was 111 % of control.

Question: What about the T/C (dose: 25.0 mg/kg/injection, schedule: Q07DX003 (ip), vehicle: saline with Tween-80) of the same compound?
Answer: The T/C was 122 % of control.

Question: And the T/C [2]?
Answer: The T/C was 36 % of control and 57 % of control.

Question: And the T/C (dose: 50.0 mg/kg/injection, schedule: Q07DX003 (ip), vehicle: saline with Tween-80)?
Answer: The T/C was 45 % of control.

Question: `COc1cc2c(c(OC)c1OC)-c1c(cc3c(c1OC)OCO3)CC(C)C(C)(O)C2OC(=O)c1ccccc1` (stereo unspecified) was tested. Which T/C (dose: 50.0 mg/kg/injection, schedule: Q07DX002 (ip), vehicle: saline + Tween-80 + alcohol) did it give?
Answer: The T/C was 165 % of control.

Question: And the T/C (dose: 100.0 mg/kg/injection, schedule: Q07DX002 (ip), vehicle: saline + Tween-80 + alcohol)?
Answer: Its T/C is 103 % of control.

Question: And the T/C (dose: 200.0 mg/kg/injection, schedule: Q07DX002 (ip), vehicle: saline + Tween-80 + alcohol)?
Answer: The T/C was 106 % of control.

Question: And the T/C (dose: 400.0 mg/kg/injection, schedule: Q07DX002 (ip), vehicle: saline + Tween-80 + alcohol)?
Answer: The T/C was 211 % of control.

Question: And the T/C (dose: 800.0 mg/kg/injection, schedule: Q07DX002 (ip), vehicle: saline + Tween-80 + alcohol)?
Answer: The T/C was 111 % of control.
